Assay results reported in paper PMC4744035, “In Vivo, In Vitro, and In Silico Characterization of Peptoids as Antimicrobial Agents” (PLoS ONE, 2016).
≈ marks a conversion by molar mass, not a printed value. Square brackets hold non-standard residues; d marks the D form. Peptide text beside a SMILES is read from it. Nspe = C[C@H](NCC(=O)O)c1ccccc1; Nlys = NCCCCNCC(=O)O

Columns and labels:
[1] = test system: P. aeruginosa H1030 (MDR); test: microbe, parasite or virus in culture; conditions: P. aeruginosa H1030 (MDR)
Summary of the method: (§1)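 Agents were diluted serially at 10x in acetic acid/BSA, added to Mueller Hinton medium, then inoculated with bacteria at 2–7 x 10^5 CFU/mL. Plates were incubated overnight at 37°C and scored for growth.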

E. faecalis ATCC29212 = test: microbe, parasite or virus in culture; conditions: ATCC29212
Summary of the method: as §1

[2] = test system: P. aeruginosa H103 (wild type); test: microbe, parasite or virus in culture; conditions: H103 (wild type)
Summary of the method: as §1

E. faecalis W61950 (VRE) = test: microbe, parasite or virus in culture; conditions: W61950 (VRE)
Summary of the method: as §1

P. maltophilia ATCC13637 = test: microbe, parasite or virus in culture; conditions: ATCC13637
Summary of the method: as §1

S. aureus C623 (MRSA) = test: microbe, parasite or virus in culture; conditions: C623
Summary of the method: as §1

E. coli 64771 (ESBL) = test: microbe, parasite or virus in culture; conditions: 64771 (ESBL)
Summary of the method: as §1

[3] = test system: P. aeruginosa H1027 (MDR); test: microbe, parasite or virus in culture; conditions: H1027 (MDR)
Summary of the method: as §1

[4] = test system: E. cloacae 218R Class C β-lactamase; test: microbe, parasite or virus in culture; conditions: 218R Class C β-lactamase
Summary of the method: as §1

E. faecalis F43559 (VRE) = test: microbe, parasite or virus in culture; conditions: F43559 (VRE)
Summary of the method: as §1

E. faecium mic80 (VRE) = test: microbe, parasite or virus in culture; conditions: mic80 (VRE)
Summary of the method: as §1

P. aeruginosa 9 (MDR) = test: microbe, parasite or virus in culture; conditions: 9 (MDR)
Summary of the method: as §1

[5] = test system: P. aeruginosa LES400 (MDR); test: microbe, parasite or virus in culture; conditions: LES400 (MDR)
Summary of the method: as §1

[6] = test system: K. pneumonia 63575 (ESBL); test: microbe, parasite or virus in culture
Summary of the method: as §1

[7] = test system: K. pneumonia 61962 (ESBL); test: microbe, parasite or virus in culture
Summary of the method: as §1

P. aeruginosa 198 (MDR) = test: microbe, parasite or virus in culture; conditions: 198 (MDR)
Summary of the method: as §1

S. aureus ATCC25923 = test: microbe, parasite or virus in culture; conditions: ATCC25923
Summary of the method: as §1

E. faecium T62764 (VRE) = test: microbe, parasite or virus in culture; conditions: T62764 (VRE)
Summary of the method: as §1

P. aeruginosa 213 (MDR) = test: microbe, parasite or virus in culture; conditions: 213 (MDR)
Summary of the method: as §1

E. coli 63103 (ESBL) = test: microbe, parasite or virus in culture; conditions: 63103 (ESBL)
Summary of the method: as §1

E. coli ATCC 35218 = type: cell-based
Summary of the method: (§2)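 MICs determined by 2:1 serial broth microdilution in cation-adjusted Mueller-Hinton broth per CLSI M7-A6, using inoculum at 1 x 10^6 CFU/mL mixed 1:1 with peptoid solution. Three independent replicates, each with two parallel trials.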

NIH 3T3 cells = test: Metabolic activity, MTS assay; type: cell-based, mouse
Method: NIH 3T3 mouse fibroblast cells were cultured in complete Dulbecco’s Modified Eagle’s Media. A peptoid solution plate (100 µL per well) was prepared by serial dilution of aqueous peptoid stock solutions in Hank’s balanced salt solution. A day-old cell monolayer was washed thoroughly with Hank’s balanced salt solution and replenished with 100 µL Hank’s balanced salt solution per well. Peptoid solutions were transferred onto the day-old cell monolayers, which contained approximately 5000 cells per well. […] The average of six replicate trials is reported.

erythrocytes = test: Hemolytic activity (HD10/HD50); type: cell-based
From the text: Table 1 Characteristics of antimicrobial peptoids, screened for activity against B. subtilis and E. coli bacterial strains. | column: HD10 / HD50

B. subtilis ATCC 6633 = type: cell-based
Summary of the method: as §2

Row | Molecule | MIC [1] | MIC (E. faecalis ATCC29212) | MIC [2] | MIC (E. faecalis W61950 (VRE)) | MIC (P. maltophilia ATCC13637) | MIC (S. aureus C623 (MRSA)) | MIC (E. coli 64771 (ESBL)) | MIC [3] | MIC [4] | MIC (E. faecalis F43559 (VRE)) | MIC (E. faecium mic80 (VRE)) | MIC (P. aeruginosa 9 (MDR)) | MIC [5] | MIC [6] | MIC [7] | MIC (P. aeruginosa 198 (MDR)) | MIC (S. aureus ATCC25923) | MIC (E. faecium T62764 (VRE)) | MIC (P. aeruginosa 213 (MDR)) | MIC E. coli (E. coli ATCC 35218) | further results
1 | C[C@@H](c1ccccc1)N(CC(N)=O)C(=O)CN(Cc1ccccc1)C(=O)CN(CCCCN)C(=O)CN(Cc1ccccc1)C(=O)CN(Cc1ccccc1)C(=O)CN(CCCCN)C(=O)CN(Cc1ccccc1)C(=O)CN(Cc1ccccc1)C(=O)CN(CCCCN)C(=O)CN(Cc1ccccc1)C(=O)CN(Cc1ccccc1)C(=O)CNCCCCN [Peptoid 1ach-Nspe12, H-(NLys-Npm-Npm)3-(NLys-Npm-Nspe)-NH2] | 32 µg/mL (≈ 18.6 µM) | 8 µg/mL (≈ 4.65 µM) | 4 µg/mL (≈ 2.32 µM) | 16 µg/mL (≈ 9.3 µM) | 1 µg/mL (≈ 0.581 µM) | 8 µg/mL (≈ 4.65 µM) | 4 µg/mL (≈ 2.32 µM) | 1 µg/mL (≈ 0.581 µM) | 16 µg/mL (≈ 9.3 µM) | 16 µg/mL (≈ 9.3 µM) | 4 µg/mL (≈ 2.32 µM) | 64 µg/mL (≈ 37.2 µM) | 4 µg/mL (≈ 2.32 µM) | 32 µg/mL (≈ 18.6 µM) | 128 µg/mL (≈ 74.4 µM) | 8 µg/mL (≈ 4.65 µM) | 4 µg/mL (≈ 2.32 µM) | 1 µg/mL (≈ 0.581 µM) | 4 µg/mL (≈ 2.32 µM) | 6.3 µM (≈ 10.8 µg/mL) | MIC (E. coli 63103 (ESBL)): 16 µg/mL (≈ 9.3 µM); ID50 (inhibitory dose, metabolic activity) (NIH 3T3 cells): 15 µM; HD10 (hemolytic activity) (erythrocytes): 164; HD50 (hemolytic activity) (erythrocytes): > 200
2 | C[C@H](NCC(=O)N(CC(=O)N(CCCCN)CC(=O)N(CC(=O)N(CCCCN)CC(=O)N(CC(=O)N(CCCCN)CC(=O)N(CC(=O)N(CC(=O)N(CC(=O)N(CC(=O)N(CCCCN)CC(N)=O)[C@@H](C)c1ccccc1)[C@@H](C)c1ccccc1)[C@@H](C)c1ccccc1)[C@@H](C)c1ccccc1)[C@@H](C)c1ccccc1)[C@@H](C)c1ccccc1)[C@@H](C)c1ccccc1)c1ccccc1 [Peptoid 1scr, H-(Nspe)2-(NLys-Nspe)3-(Nspe)3-NLys-NH2] (H-[Nspe][Nspe][Nlys][Nspe][Nlys][Nspe][Nlys][Nspe][Nspe][Nspe][Nspe][Nlys]-NH2) | 64 µg/mL (≈ 35.2 µM) | 8 µg/mL (≈ 4.4 µM) | 16 µg/mL (≈ 8.79 µM) | 32 µg/mL (≈ 17.6 µM) | 2 µg/mL (≈ 1.1 µM) | 8 µg/mL (≈ 4.4 µM) | 16 µg/mL (≈ 8.79 µM) | 4 µg/mL (≈ 2.2 µM) | 32 µg/mL (≈ 17.6 µM) | 8 µg/mL (≈ 4.4 µM) | 8 µg/mL (≈ 4.4 µM) | 256 µg/mL (≈ 141 µM) | 16 µg/mL (≈ 8.79 µM) | 64 µg/mL (≈ 35.2 µM) | 128 µg/mL (≈ 70.4 µM) | 32 µg/mL (≈ 17.6 µM) | 8 µg/mL (≈ 4.4 µM) | 2 µg/mL (≈ 1.1 µM) | 16 µg/mL (≈ 8.79 µM) | 6.3 µM (≈ 11.5 µg/mL) | MIC (E. coli 63103 (ESBL)): 64 µg/mL (≈ 35.2 µM); ID50 (inhibitory dose, metabolic activity) (NIH 3T3 cells): 8.5 µM; HD10 (hemolytic activity) (erythrocytes): 64; HD50 (hemolytic activity) (erythrocytes): > 200
3 | H-(NLys-Nspe-Nspe)3-NH2 [Peptoid 1_9mer] | – | – | – | – | – | – | – | – | – | – | – | – | – | – | – | – | – | – | – | 25 µM | MIC B. subtilis (B. subtilis ATCC 6633): 1.6 µM
